Data: US20170266166A1, “Compositions and Methods to Inhibit Estrogen Receptor Beta for the Treatment of Renal Cell Carcinoma” (University of Rochester, priority 2014, published 2017)

Experiments:
[1] = system: 786-O tumors; assay: anti-estrogen treatment of mice carrying 786-O RCC tumors (IVIS imaging, tumor weight, metastasis); format: in vivo; conditions: for RCC tumor growth and metastasis (IVIS imaging, tumor weights): mouse RCC model, result in words; for mice that developed distal metastasis: ip injection every other day, after 4 weeks of treatments, 3 of the 6 DMSO treated mice developed metastasis
From the text: Results of IVIS imaging, tumor size, and tumor weights are shown and compared.
The Fe-NTA transformed human renal carcinoma cell lines 7860.sh-ERβ/7860.sh-Luc and A498 hERβ/Vec were directly injected into the renal capsule of nude mice. After anesthesia, the back skin was lifted with a pair of blunt forceps and cut along the midline with a pair of scissors creating an incision approximately an inch in length; the dermis was separated from the underlying body wall on both sides of the incision for bilateral grafting or on one side only (blunt dissection). The animal was placed on its side, and the location of the kidney identified by viewing it through the body wall. A small incision ([…]) was made in the body wall just slightly longer than the long axis of the kidney. The exteriorized kidney was allowed to rest on the body wall. We used a syringe to inject the cells at the cell numbers of 1×10^6, both with matrigel (1:1) under the renal capsule.
ERβ antagonists, PHTPP and ICI, inhibit RCC cell growth and cell invasion Knockdown of ERβ reduced RCC cells growth and Invasion. It was then investigated whether PHTPP (ERβ selective antagonist) and ICI 182,780 (ICI, anti-estrogen) have therapeutic effects to reduce RCC tumor growth and metastasis in vivo. […] Also, both anti-estrogens have been used to treat mouse breast cancer models. The same doses of PHTPP and ICI were applied in mice carrying 786-O tumors DMSO (mock control), PHTPP and ICI were administrated via intraperitoneal (ip) injection every other day. IVIS imaging was applied to monitor tumor growth and distal metastasis. After 4 weeks of treatments, mice were sacrificed for tumor analysis. […] All the mice had developed RCC by the time they were sacrificed. […] In addition to PHTPP and ICI, tamoxifen was also tested on mouse RCC growth.

[2] = system: advanced RCC; conditions: 1990's clinical trials; cited from earlier work
[3] = target: ERβ (Homo sapiens, UniProt Q92731); conditions: 10 μM, previous reports; cited from earlier work
[4] = system: 786-O cells; assay: transwell RCC cell migration assay; format: cell-based, human; conditions: for cell migration: 10 nM
[5] = system: A498 cells; assay: transwell RCC cell migration assay; format: cell-based, human
[6] = system: 786-O cells; assay: transwell matrigel RCC cell invasion assay; format: cell-based, human; conditions: 10 μM
Protocol: (§1) The migration or invasion capability of RCC cells was determined using the transwell assay. In brief, 1×105 (invasion)/2-5×104 (migration) cells were harvested and seeded with serum-free media into the upper chamber with or without coated Matrigel with (BD Corning). The migrated or invaded cells were fixed by 4% paraformaldehyde and stained with 1% toluidine blue. Cell numbers were counted in five randomly chosen microscopic fields (100×) per membrane. When necessary, cells were treated with 10 μM of TGFβR-1 inhibitor (SB525334 Selleckchem) for 48 hr.
(§2) To further validate the ERβ→TGFβ1→pSMAD3 pathway, an interruption approach was applied by using TGFβR-1 inhibitors (10 μM) for the cell invasion assay in both 786-O and A498 cells (FIG. 5D).

[7] = system: A498 cells; assay: transwell matrigel RCC cell invasion assay; format: cell-based, human; conditions: 10 μM
Protocol: as §1, §2

[8] = system: pSMAD3; assay: Western blot after TGFβR-1 inhibitor treatment; format: cell-based, human; conditions: after treatment of TGFβR-1 inhibitor, FIG. 5D
Protocol: FIG. 5E illustrates the experimental setting for treatment of RCC with TGFβR-1 inhibitor and migration. RCC cells were cultured for 48 hr and then treated with 10 μM TGFβR-1 inhibitor for 6 hr. RCC cells were then trypsinized and seeded in the upper transwell (5×10^4/well) for 24 hr to determine the migration rate. […] Quantification of migrated cells was shown on the right panel.
The expressions of ERs were determined by the Western blot according to the previous study (Hsu et al., Carcinogenesis, 2014, 35:651-61). Rabbit anti-ERβ polyclonal antibody (GTX 110607 GeneTex Corporation), mouse anti-GAPDH monoclonal antibody (Santa Cruz Biotechnology), rabbit anti-TGFB1 polyclonal antibody (Abcam Biotechnology), and mouse anti-SMAD3 monoclonal antibody (Abcam Biotechnology) were all used and all at 1:1,000 dilution in blocking buffer. The immunopositive bands were visualized with an ECL chemiluminescent detection system (Thermo Scientific, Rockford, Ill.), and the images were transferred to the Bio-rad imaging system. The Western analysis was scored positive if the band of interest was present at the expected molecular weight appropriate for each marker protein. All analyses were done in duplicate.
as §2

[9] = system: 786-O cells; assay: RCC cell growth, MTT assay; format: cell-based, human; conditions: 10 nM, 786-O (high endogenous ERβ), MTT and colony forming assays
Protocol: (§3) FIG. 2, comprising FIGS. 2A-2F, depicts the results of experiments comparing ERβ expression in RCC cell lines and estrogen/ERβ effects on RCC cell growth. […] Expression of ERα was not detected in tested RCC cells. ERβ has the highest expression level in 786-O and lowest in A498. Breast cancer cell MCF-7 was used as a positive control. […] The growth rate of 786-O cells (with high endogenous ERβ) is increased in the presence of 17β-estradiol (10 nM) as compared with the control Etoh). […] FIGS. 2D-2E show changes in ERβ expression levels can affect the RCC cell growth. A lentivirus system was used to knock-down ERβ in RCC 786-O cells (by lenti-ERβ-shRNA), or to increase ERβ in A498 cells (by lenti-ERβ cDNA). Cell growth rates were determined by MTT assay.
(§4) RCC cells were seeded in 24-well plates (5000 cells/200 μl medium per well) and cultured for 0, 2, 4 and 6 days. Cells were harvested and cell number was calculated using MTT agent.
(§5) To examine the ERβ roles on RCC cell growth, the lentiviral ERβ cDNA and shRNA were used to change the expression of ERβ in 2 RCC cell lines, A498 (low endogenous ERβ) and 786-O (high endogenous ERβ), respectively. 10 nM […] estradiol (E2) was used to activate ERβ and examine the growth changes using MTT assay and colony forming assays. […] Supportively, knocking-down ERβ by ERβ-siRNA in RCC 786-O cells suppressed cell growth, sh-Luciferase as control (FIG. 2D). […]

[10] = system: A498 cells; assay: RCC cell growth, MTT assay; format: cell-based, human; conditions: 10 nM, A498 (little ERβ)
Protocol: as §3, §4, §5

[11] = mice carrying 786-O tumors, ip every other day, 4 weeks

Chain of ERβ (Q92731 whole entry): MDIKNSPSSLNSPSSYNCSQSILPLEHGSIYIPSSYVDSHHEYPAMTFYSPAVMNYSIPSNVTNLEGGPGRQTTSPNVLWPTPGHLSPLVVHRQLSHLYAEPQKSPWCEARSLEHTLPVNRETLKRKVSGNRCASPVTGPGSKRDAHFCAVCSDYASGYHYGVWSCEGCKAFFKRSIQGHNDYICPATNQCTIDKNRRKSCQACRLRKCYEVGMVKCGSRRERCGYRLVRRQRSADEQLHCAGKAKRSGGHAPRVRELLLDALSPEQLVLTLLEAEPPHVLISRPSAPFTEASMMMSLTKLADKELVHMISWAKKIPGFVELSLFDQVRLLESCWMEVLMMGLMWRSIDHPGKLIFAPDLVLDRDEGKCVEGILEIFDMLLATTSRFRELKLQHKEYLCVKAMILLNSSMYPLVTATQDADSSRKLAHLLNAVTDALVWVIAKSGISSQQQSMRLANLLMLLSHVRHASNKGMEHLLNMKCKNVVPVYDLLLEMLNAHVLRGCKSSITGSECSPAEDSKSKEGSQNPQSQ

SMILES: CC/C(=C(\c1ccccc1)c1ccc(OCCN(C)C)cc1)c1ccccc1 [tamoxifen]
- inhibition of tumor size compared to the control group ([1]; RCC in vivo, FIG. 9): about 40%
- efficacy to inhibit ERβ activity ([1]; compared to ICI 182,780 and PHTPP, FIG. 9): ~40%
- RCC tumor growth and metastasis (IVIS imaging, tumor weights) ([1]; in vivo): less effective on inhibiting RCC tumor
- therapeutic efficacy in advanced RCC [2]: no significant therapeutic efficacy

SMILES: C[C@]12CC[C@@H]3c4ccc(O)cc4C[C@@H](CCCCCCCCC[S+]([O-])CCCC(F)(F)C(F)(F)F)[C@H]3[C@@H]1CC[C@@H]2O (stereo partly drawn) [ICI 182,780, 7α-[9-(4,4,5,5,5-pentafluoropentylsulfinyl)nonyl]estra-1,3,5(10)-triene-3,17β-diol]
- body weights versus control [1, 11]: higher body weights than control
- mice that developed distal metastasis ([1]; mice carrying 786-O tumors): around 17%
- RCC tumor growth and metastasis (IVIS imaging, tumor weights) ([1]; in vivo): inhibit the RCC tumor growth and metastasis
- signs of toxicity or adverse treatment side effects ([1]; mouse, in vivo, ip): without any signs of toxicity or adverse treatment side effects
- estrogen induced ERβ transactivation on EREluciferase reporter activity [3]: effectively inhibit

SMILES: Cc1cccc(-c2[nH]c(C(C)(C)C)nc2-c2ccc3nccnc3c2)n1 [TGFβR-1 inhibitor]
- migration ability ([4]; 10 μM for 48 hr, 786-O sh-Luc (higher ERβ)): dramatically attenuated
- migration ability ([5]; 10 μM for 48 hr, A498 ERβ (higher ERβ)): dramatically attenuated
- ERβ-enhanced invasion [6]: suppression of ERβ-enhanced invasion
- ERβ-enhanced invasion [7]: suppression of ERβ-enhanced invasion
- pSMAD3 level by Western blot [8]: reduced pSMAD3

SMILES: Oc1ccc(-c2c(-c3ccccc3)nn3c(C(F)(F)F)cc(C(F)(F)F)nc23)cc1 [PHTPP]
- body weights versus control [1, 11]: higher body weights than control
- signs of toxicity or adverse treatment side effects [1, 11]: without any signs of toxicity or adverse treatment side effects
- mice that developed distal metastasis ([1]; mice carrying 786-O tumors): around 17%
- RCC tumor growth and metastasis (IVIS imaging, tumor weights) ([1]; in vivo): inhibit the RCC tumor growth and metastasis
- estrogen induced ERβ transactivation on EREluciferase reporter activity [3]: effectively inhibit

SMILES: C[C@]12CC[C@@H]3c4ccc(O)cc4CC[C@H]3[C@@H]1CC[C@@H]2O [E2, 17β-estradiol]
- cell growth [9]: significantly enhanced the cell growth
- cell growth [10]: little E2 stimulating effect
- cell migration ([4]; 786-O sh-Luc control cells): could enhance
- cell migration ([4]; ERβ knockdown 786-O cells (786-O-shERβ)): little effect
- cell migration ([5]; 10 nM, A498-ERβ cells): further stimulated the migration
